From patent US12528812B2 (Genentech, Inc., priority 2020, dated 2026) come the findings set out here.

Like-named read-outs stand apart in the source and are kept apart here.

In assay [1] the test system is IL-13-stimulated STAT6 phosphorylation in human lung bronchial epithelial BEAS-2B cell line. Kind of assay: P-STAT6 BEAS-2B + IL-13 cell assay. The format is cell-based. Conditions: BEAS2B cells, IL13 stimulation, read-out: Cellular JAK1 PSTAT6 BEAS2B + IL13. An outline of the steps:
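Phospho-STAT6 (Tyr641) was quantified in lysates by MSD electrochemiluminescence after human IL-13 challenge (250 ng/mL stock, 15 min, 37 °C). Before that, BEAS-2B cells cultured 48 h had 1 h compound exposure over 10 concentrations. Percent of control was fitted to a four-parameter logistic model to give IC50.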

The target of assay [2] is T1, recombinant human JAK1 kinase domain protein (Residues 854-1154) (Homo sapiens, UniProt P23458).
T1 construct: human JAK1 kinase domain protein (Residues 854-1154); purchased Proteros Biostructures GmbH (Martinsried, Germany); host or cells: insect cells
Kind of assay: JAK1 biochemical assay (LabChip mobility shift, Ki). As to conditions: read-out: Biochem JAK1 Ki.

In assay [3] the target is Recombinant human JAK2 kinase domain protein (Residues 812-1132) (Homo sapiens, UniProt O60674). Nature of the assay: JAK2 biochemical assay (LabChip mobility shift, Ki). As to conditions: Biochem JAK2 Ki.
Chain of Recombinant human JAK2 kinase domain protein (Residues 812-1132) (O60674 812-1132): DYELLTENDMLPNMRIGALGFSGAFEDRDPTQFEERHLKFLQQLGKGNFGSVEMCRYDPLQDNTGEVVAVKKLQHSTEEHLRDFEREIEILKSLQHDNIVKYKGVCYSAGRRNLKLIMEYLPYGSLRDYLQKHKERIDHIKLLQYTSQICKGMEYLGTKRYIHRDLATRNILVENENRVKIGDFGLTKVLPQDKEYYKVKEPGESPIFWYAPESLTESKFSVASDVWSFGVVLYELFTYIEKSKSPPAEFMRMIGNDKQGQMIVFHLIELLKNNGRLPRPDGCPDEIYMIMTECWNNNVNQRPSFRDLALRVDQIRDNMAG
Experimental: The in vitro biochemical assays quantify JAK-catalyzed phosphorylation of a synthetic peptide, as detected using a LabChip® EZ Reader II microfluidic mobility shift instrument (PerkinElmer; Waltham, MA). […] Y-1B is fluorescently labeled on the N-terminus with 5-FAM (5-carboxyfluorescein) and contains a single tyrosine residue (Y) that can be phosphorylated by JAK activity. The substrate peptide stock is prepared in DMSO at 5 mM. […] In each titration experiment, test compound was tested in duplicate at each of the twelve concentrations. Blank reactions contained ATP, peptide, and DMSO, but no JAK or test compound, whereas uninhibited control reactions contained ATP, peptide, JAK, and DMSO, but no test compound.
Peptide plus ATP mixture (24 μL) was added to 1 μL of test compound in DMSO (or DMSO alone). The reactions were initiated by adding 25 μL of JAK enzyme to the inhibitor/peptide/ATP mixture before thoroughly mixing the resultant solution. Reactions were incubated at room temperature (22° C.-23° C.) in a final volume of 50 μL per well in 384-well plates. After a 30-minute incubation, the reactions were stopped by adding 25 μL of 150 mM ethylenediaminetetraacetic acid in 100 mM HEPES buffer (pH 7.2) containing 0.015% Brij 35 to each well.
In each reaction, the residual Y-1B substrate and the phospho-peptide product generated were separated using the EZ Reader II instrument. Electrophoretic separation of molecules of product from molecules of substrate was achieved using downstream and upstream voltages of −500 and −2600 V, respectively, at an operating pressure of −1.3 psi.
The extent (or percent) of conversion of substrate to product was calculated from the corresponding peak heights in the electropherogram using HTS Well Analyzer software, Version 5.2 (PerkinElmer), and the following equation (Equation 1): conversion=[P÷(S+P)]×100 Equation 1% where S and P represent the peak heights of the substrate and product, respectively. After any baseline signal from blank wells containing no JAK was subtracted from the signal of all test wells, the % conversion data were converted to fractional activity as shown in Equation 2, where vi and vo are the % conversion in the presence and absence of test compound, respectively.

T1 sequence (P23458 854-1154): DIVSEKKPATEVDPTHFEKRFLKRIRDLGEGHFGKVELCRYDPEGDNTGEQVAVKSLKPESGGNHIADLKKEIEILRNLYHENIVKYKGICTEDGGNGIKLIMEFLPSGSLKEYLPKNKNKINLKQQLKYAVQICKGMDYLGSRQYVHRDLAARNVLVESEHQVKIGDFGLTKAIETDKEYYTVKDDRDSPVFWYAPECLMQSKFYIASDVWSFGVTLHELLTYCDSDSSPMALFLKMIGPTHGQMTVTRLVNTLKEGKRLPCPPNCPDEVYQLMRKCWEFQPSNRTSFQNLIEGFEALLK

For `Cc1nn(CCO)cc1Oc1ccc(OC(F)F)c(-c2nn(C)cc2NC(=O)c2cnn3cccnc23)c1` [Example 154, N-[3-[2-(difluoromethoxy)-5-[1-(2-hydroxyethyl)-3-methyl-pyrazol-4-yl]oxy-phenyl]-1-methyl-pyrazol-4-yl]pyrazolo[1,5-a]pyrimidine-3-carboxamide], the IC50 in assay [1] (Homo sapiens, BEAS-2B) was 37 nM. The figures for the Ki in assay [2] and in assay [3] were 0.57 nM and 0.29 nM, respectively.

On to `Cc1c(Oc2ccc(OC(F)F)c(-c3nn(C)cc3NC(=O)c3cnn4cccnc34)c2)cnn1CCO` [Example 155, N-[3-[2-(difluoromethoxy)-5-[1-(2-hydroxyethyl)-5-methyl-pyrazol-4-yl]oxy-phenyl]-1-methyl-pyrazol-4-yl]pyrazolo[1,5-a]pyrimidine-3-carboxamide], for which the IC50 in assay [1] (Homo sapiens, BEAS-2B) amounted to 25 nM. The Ki (usually a dissociation constant, usually derived from enzyme kinetics or from competition with a known ligand) in assay [2] came out at 0.31 nM; in assay [3] it was 0.21 nM.

On to `Cn1cc(NC(=O)c2cnn3cccnc23)c(-c2cc(Oc3ccc(CC(=O)N4CCOCC4)cc3)ccc2OC(F)F)n1` [Example 156, N-[3-[2-(difluoromethoxy)-5-[4-(2-morpholino-2-oxo-ethyl)phenoxy]phenyl]-1-methyl-pyrazol-4-yl]pyrazolo[1,5-a]pyrimidine-3-carboxamide], for which the IC50 in assay [1] (Homo sapiens, BEAS-2B) worked out at 23 nM. Moreover, the values for the Ki in assay [2] and in assay [3] were 0.27 nM and 0.12 nM, respectively.

As to `O=C(Nc1cn(C2COC2)nc1-c1cc(Oc2ccc3c(c2)CNCC3)ccc1OC(F)F)c1cnn2cccnc12` [Example 157, N-[3-[2-(difluoromethoxy)-5-(1,2,3,4-tetrahydroisoquinolin-7-yloxy)phenyl]-1-(oxetan-3-yl)pyrazol-4-yl]pyrazolo[1,5-a]pyrimidine-3-carboxamide], in assay [1] (Homo sapiens, BEAS-2B), the IC50 was 28 nM. Further, the Ki came to 0.31 nM in assay [2] and 0.28 nM in assay [3].

For the molecule `CN(C)C(=O)c1cncc(Oc2ccc(OC(F)F)c(-c3nn(C)cc3NC(=O)c3cnn4cccnc34)c2)c1` [Example 159, N-[3-[2-(difluoromethoxy)-5-[[5-(dimethylcarbamoyl)-3-pyridyl]oxy]phenyl]-1-methyl-pyrazol-4-yl]pyrazolo[1,5-a]pyrimidine-3-carboxamide], the IC50 in assay [1] (Homo sapiens, BEAS-2B) turned out to be 43 nM. The figures for the Ki in assay [2] and in assay [3] were 0.54 nM and 0.37 nM, respectively.

Consider `Cn1cc(Oc2ccc(OC(F)F)c(-c3nn(CC(N)=O)cc3NC(=O)c3cnn4cccnc34)c2)cn1` [Example 174, N-[1-(2-amino-2-oxo-ethyl)-3-[2-(difluoromethoxy)-5-(1-methylpyrazol-4-yl)oxy-phenyl]pyrazol-4-yl]pyrazolo[1,5-a]pyrimidine-3-carboxamide], for which the IC50 in assay [1] (Homo sapiens, BEAS-2B) came to 240 nM. Also, the Ki in assay [2] is 1.6 nM; in assay [3] it was 0.92 nM.

In the case of `Cn1cc(NC(=O)c2cnn3cccnc23)c(-c2cc(Oc3ccccn3)ccc2OC(F)F)n1` [Example 175, N-[3-[2-(difluoromethoxy)-5-(2-pyridyloxy)phenyl]-1-methyl-pyrazol-4-yl]pyrazolo[1,5-a]pyrimidine-3-carboxamide], in assay [1] (Homo sapiens, BEAS-2B), the IC50 is 68 nM. Further, the Ki amounted to 1.1 nM in assay [2] and 0.57 nM in assay [3].

As to `Cn1cc(NC(=O)c2cnn3cccnc23)c(-c2cc(Oc3cnn(C4CNCC4O)c3)ccc2OC(F)F)n1` (stereo not drawn) [Example 176, N-[3-[2-(difluoromethoxy)-5-[1-(4-hydroxypyrrolidin-3-yl)pyrazol-4-yl]oxy-phenyl]-1-methyl-pyrazol-4-yl]pyrazolo[1,5-a]pyrimidine-3-carboxamide], in assay [1] (Homo sapiens, BEAS-2B), the IC50 worked out at 210 nM. Besides, the Ki turned out to be 0.25 nM in assay [2] and 0.21 nM in assay [3].

In the case of `Cn1cc(NC(=O)c2cnn3cccnc23)c(-c2cc(Oc3cnn(C4CNCC4O)c3)ccc2OC(F)F)n1` (stereo not drawn) [Example 177, N-[3-[2-(difluoromethoxy)-5-[1-(4-hydroxypyrrolidin-3-yl)pyrazol-4-yl]oxy-phenyl]-1-methyl-pyrazol-4-yl]pyrazolo[1,5-a]pyrimidine-3-carboxamide], in assay [1], the IC50 worked out at 330 nM. The Ki came out at 0.57 nM in assay [2] and 0.34 nM in assay [3].

Consider `Cn1cc(NC(=O)c2cnn3cccnc23)c(-c2cc(Oc3cnn(C4CCNCC4O)c3)ccc2OC(F)F)n1` (stereo not drawn) [Example 182, N-[3-[2-(difluoromethoxy)-5-[1-(3-hydroxy-4-piperidyl)pyrazol-4-yl]oxy-phenyl]-1-methyl-pyrazol-4-yl]pyrazolo[1,5-a]pyrimidine-3-carboxamide], for which, in assay [1] (Homo sapiens, BEAS-2B), the IC50 worked out at 160 nM. The inhibition constant Ki came to 0.65 nM in assay [2] and 0.43 nM in assay [3].

Take `Cn1cc(NC(=O)c2cnn3cccnc23)c(-c2cc(Oc3cnn(C4CCNCC4O)c3)ccc2OC(F)F)n1` (stereo not drawn) [Example 183, N-[3-[2-(difluoromethoxy)-5-[1-(3-hydroxy-4-piperidyl)pyrazol-4-yl]oxy-phenyl]-1-methyl-pyrazol-4-yl]pyrazolo[1,5-a]pyrimidine-3-carboxamide]: the IC50 in assay [1] worked out at 150 nM. In addition, the results for the Ki in assay [2] and in assay [3] were 0.41 nM and 0.22 nM, respectively.

As for `Cn1cc(NC(=O)c2cnn3cccnc23)c(-c2cc(Oc3cnn([C@H]4C[C@H](N)C4)c3)ccc2OC(F)F)n1` [Example 188, N-[3-[5-[1-(3-aminocyclobutyl)pyrazol-4-yl]oxy-2-(difluoromethoxy)phenyl]-1-methyl-pyrazol-4-yl]pyrazolo[1,5-a]pyrimidine-3-carboxamide], the IC50 in assay [1] (Homo sapiens, BEAS-2B) turned out to be 150 nM. The Ki in assay [2] was 0.91 nM; in assay [3] it was 0.77 nM.

Regarding `CN1CC(O)(c2cncc(Oc3ccc(OC(F)F)c(-c4nn(C)cc4NC(=O)c4cnn5cccnc45)c3)c2)C1` [Example 189, N-[3-[2-(difluoromethoxy)-5-[[5-(3-hydroxy-l-methyl-azetidin-3-yl)-3-pyridyl]oxy]phenyl]-1-methyl-pyrazol-4-yl]pyrazolo[1,5-a]pyrimidine-3-carboxamide], in assay [1] (Homo sapiens, BEAS-2B), the IC50 came out at 78 nM. Also, the Ki in assay [2] is 0.57 nM; in assay [3] it was 0.39 nM.

As for `CN1CCC(O)(Cn2cc(Oc3ccc(OC(F)F)c(-c4nn(C)cc4NC(=O)c4cnn5cccnc45)c3)cn2)CC1` [Example 191, N-[3-[2-(difluoromethoxy)-5-[1-[(4-hydroxy-1-methyl-4-piperidyl)methyl]pyrazol-4-yl]oxy-phenyl]-1-methyl-pyrazol-4-yl]pyrazolo[1,5-a]pyrimidine-3-carboxamide], in assay [1] (Homo sapiens, BEAS-2B), the IC50 worked out at 110 nM. For the same molecule, the Ki was 0.54 nM in assay [2] and 0.19 nM in assay [3].

As to `CN1CCCC(O)(Cn2cc(Oc3ccc(OC(F)F)c(-c4nn(C)cc4NC(=O)c4cnn5cccnc45)c3)cn2)C1` (stereo not drawn) [Example 193, N-[3-[2-(difluoromethoxy)-5-[1-[(3-hydroxy-l-methyl-3-piperidyl)methyl]pyrazol-4-yl]oxy-phenyl]-1-methyl-pyrazol-4-yl]pyrazolo[1,5-a]pyrimidine-3-carboxamide], the IC50 in assay [1] (Homo sapiens, BEAS-2B) is 58 nM. Moreover, the Ki is 1.6 nM in assay [2] and 2.3 nM in assay [3].

On to `CN1CCCC(O)(Cn2cc(Oc3ccc(OC(F)F)c(-c4nn(C)cc4NC(=O)c4cnn5cccnc45)c3)cn2)C1` (stereo not drawn) [Example 194, N-[3-[2-(difluoromethoxy)-5-[1-[(3-hydroxy-l-methyl-3-piperidyl)methyl]pyrazol-4-yl]oxy-phenyl]-1-methyl-pyrazol-4-yl]pyrazolo[1,5-a]pyrimidine-3-carboxamide], for which the IC50 in assay [1] was 64 nM. The Ki is 2.1 nM in assay [2] and 1.4 nM in assay [3].
